{"source": "patent US20030181426A1", "about": "“Compositions and methods for treating pain using cyclooxygenase-1 inhibitors” (priority 2002, published 2003)", "key": {"COX-1 and COX-2": {"system": "COX-1 and COX-2", "conditions": "as known in the art / Warner, 1999; cited from earlier work"}, "[1]": {"system": "acetic acid-induced writhing response", "conditions": "mice; COX-1 sensitive pain models; Ochi et al. 2000; cited from earlier work"}, "tactile allodynia [2]": {"system": "tactile allodynia", "experiment": "Partial sciatic nerve ligation (PSNL) tactile allodynia, i.t. COX inhibitors", "assay_type": "in vivo, Sprague-Dawley rats", "description": "A Sprague-Dawley rats (Harlan Industries, Indianapolis, Ind., USA), weighing 200-250 g, were used in this study. All animal surgical procedures were in conformity with the Wake Forest University guidelines on the ethical use of animals and studies were approved by the Animal Care and Use Committee. Animals were implanted with intrathecal catheters according to the method described previously. (Yaksh TL, 1976). Briefly, under halothane anesthesia (2-4% in oxygen/air), animals were placed prone in a stereotaxic frame and a small incision was made at the back of the neck. A small puncture was made in the atlanto-occipital membrane of the cistema magna and a polyethylene catheter (PE-10, 7.5 cm) was inserted so that the caudal tip reached the lumbar enlargement of the spinal cord. The rostral end of the catheter was exteriorized at the top of the head and the wound was closed with sutures. Animals were allowed 4-5 days to recover from the surgery and those displaying signs of motor dysfunction (fore limb or hind limb paralysis) were excluded from the study. Rats were anesthetized with 2-4% halothane in oxygen-air. For partial […] nerve ligation (PSNL), the left sciatic nerve was exposed at the high thigh level and one-third to one-half of the nerve was ligated with silk suture (size 6) as previously described (Shir et al., 1991). Animals were maintained after surgery with ad libitum food and water on a 12-h light/dark cycle. All rats were allowed to recover for 4 weeks after PSNL. By then, tactile allodynia was well established in the ipsilateral hindpaw."}, "inflammation": {"system": "inflammation", "conditions": "rat animal model; compared to indomethancin; Mansferrer et al. 1994; cited from earlier work"}, "noxious heat": {"system": "noxious heat", "experiment": "Latency to paw withdrawal from noxious heat", "assay_type": "in vivo, male Sprague-Dawley rats", "conditions": "drug alone; rats with intrathecal catheter", "description": "After Animal Care and Use Committee approval, adult male Sprague-Dawley rats (240-330 g; Harlan, Indianapolis, Ind.) were anesthetized with halothane. A catheter was inserted, as previously described, through a small nick in the cisterna magnum membrane into the intrathecal space and advanced 7.5 cm such that its tip lay in the lumbar intrathecal space. […] After catheter implantation, rats were housed individually with a 12 h/12 h light/dark cycle and an unlimited supply of water and food. Experiments occurred at least 6 days after surgery."}, "[3]": {"conditions": "rat, in vivo, ip"}, "tactile allodynia [4]": {"system": "tactile allodynia", "experiment": "L5 and L6 spinal nerve ligation (SNL) tactile allodynia, lidocaine and ketorolac", "assay_type": "in vivo, male Sprague-Dawley rats"}, "[5]": {"experiment": "Hind limb weakness or paralysis after lidocaine injection"}, "tactile allodynia [6]": {"system": "tactile allodynia", "experiment": "PSNL tactile allodynia, lidocaine", "assay_type": "in vivo, male Sprague-Dawley rats"}, "[7]": {"system": "locomotor activity after laparotomy", "experiment": "Post-laparotomy locomotor activity model", "assay_type": "in vivo, rats"}, "nociceptive responses [8]": {"system": "nociceptive responses", "conditions": "normal and monoarthritic rats; Mazario et al. 2001; cited from earlier work"}, "nociceptive responses [9]": {"system": "nociceptive responses", "conditions": "mice with paw inflammation; Mazario et al. 2001; cited from earlier work"}, "[10]": {"conditions": "300 μg intrathecal, 3 days after injection"}, "[11]": {"conditions": "IV 3 mg/kg, 24 hr after laparotomy, 3 mg/kg"}}, "note": "“Also recorded” adds a separate entry of the source. Where two headings read alike, the source gives them in different places.", "data": [{"smiles": "COc1ccc2cc(CC(=O)O)ccc2c1", "note": "[6-methoxy-2-napthyl acetic acid]", "values": [{"measurement": "preference in inhibition of COX-1 and COX-2", "setting": "COX-1 and COX-2", "value": "preferentially inhibit COX-2"}]}, {"smiles": "COc1ccc(-c2nc(C(=O)N3CCN(C)CC3)sc2-c2ccc(OC)cc2)cc1", "note": "[FR122047]", "values": [{"measurement": "analgesic effect against acetic acid-induced writhing response", "setting": "[1]", "value": "dose-dependent analgesic effect"}]}, {"smiles": "CS(=O)(=O)Nc1ccc([N+](=O)[O-])cc1OC1CCCCC1", "note": "[NS-398]", "values": [{"measurement": "withdrawal threshold, ipsilateral hindpaw", "setting": "tactile allodynia [2]; 2 and 4 h after injection", "value": "reversed to pre-lesion baseline level"}, {"measurement": "duration of reversal of withdrawal threshold", "setting": "tactile allodynia [2]; 4 weeks after PSNL", "value": 24, "unit": "h"}, {"measurement": "withdrawal threshold, ipsilateral hindpaw", "setting": "tactile allodynia [2]; 48 h post-injection", "value": "returned to pre-injection level"}, {"measurement": "analgesic effect against acetic acid-induced writhing response", "setting": "[1]", "value": "had no effect"}, {"measurement": "anti-inflammatory and ulcerogenic effect", "setting": "inflammation", "value": "anti-inflammatory but not ulcerogenic"}]}, {"smiles": "Clc1cccc(Cl)c1N=C1NCCN1", "note": "[clonidine]", "values": [{"measurement": "antinociception (latency to paw withdrawal from noxious heat)", "setting": "noxious heat", "value": "produced antinociception"}]}, {"smiles": "CC(C(=O)O)c1ccc(-c2ccccc2)c(F)c1", "note": "(stereo not shown) [flubiprofen]", "values": [{"measurement": "preference in inhibition of COX-1 and COX-2", "setting": "COX-1 and COX-2", "value": "preferentially inhibit COX-1"}]}, {"smiles": "CC(C)Cc1ccc(C(C)C(=O)O)cc1", "note": "(stereo not shown) [ibuprofen]", "values": [{"measurement": "preference in inhibition of COX-1 and COX-2", "setting": "COX-1 and COX-2", "value": "no or small preferences in inhibition of COX-1 and COX-2"}]}, {"smiles": "COc1ccc2c(c1)c(CC(=O)O)c(C)n2C(=O)c1ccc(Cl)cc1", "note": "[indomethancin]", "values": [{"measurement": "preference in inhibition of COX-1 and COX-2", "setting": "COX-1 and COX-2", "value": "preferentially inhibit COX-1"}]}, {"smiles": "CCN(CC)CC(=O)Nc1c(C)cccc1C", "note": "[lidocaine]", "values": [{"measurement": "behavior", "setting": "[3]", "value": "no abnormal behavior"}, {"measurement": "tactile allodynia, ipsilateral hind paw", "setting": "tactile allodynia [4]; 100 μg intrathecal, four weeks following SNL, two hours and 2 days following injection", "value": "markedly reversed to the prelesion level"}, {"measurement": "withdrawal threshold in the hind paw", "setting": "tactile allodynia [4]; 100 μg intrathecal, three days after injection", "value": "not significantly lower than the prelesion baseline value"}, {"measurement": "tactile allodynia, ipsilateral hind paw", "setting": "tactile allodynia [4]; 200 μg intrathecal, four weeks following SNL, two hours and 2 days following injection", "value": "markedly reversed to the prelesion level"}, {"measurement": "tactile allodynia, ipsilateral hind paw", "setting": "tactile allodynia [4]; 200 μg intrathecal, three days after injection", "value": "reappeared"}, {"measurement": "tactile allodynia, ipsilateral hind paw", "setting": "tactile allodynia [4]; 300 μg intrathecal, four weeks following SNL, two hours and 2 days following injection", "value": "markedly reversed to the prelesion level"}, {"measurement": "tactile allodynia, ipsilateral hind paw", "setting": "tactile allodynia [4]; 300 μg intrathecal, three days after injection", "value": "reappeared"}, {"measurement": "transient weakness or paralysis of both hind limbs, incidence", "setting": "[5]; 100 μg intrathecal", "value": "completely absent"}, {"measurement": "transient weakness or paralysis of both hind limbs, incidence", "setting": "[5]; 200 μg intrathecal", "value": "one third of rats"}, {"measurement": "transient weakness or paralysis of both hind limbs, incidence", "setting": "[5]; 300 μg intrathecal", "value": "almost all rats"}, {"measurement": "duration of transient weakness or paralysis", "setting": "[5]; intrathecal lidocaine", "value": "10 to 20", "unit": "min"}, {"measurement": "tactile allodynia", "setting": "tactile allodynia [6]; 300 μg intraperitoneal, four PSNL rats", "value": "no attenuation or reversal of tactile allodynia was observed"}, {"measurement": "antiallodynic effect", "setting": "tactile allodynia [6]; 300 μg intrathecal, 1 week after injection", "value": "disappeared"}, {"measurement": "effect on the ipsilateral hind paw", "setting": "tactile allodynia [6]; [10]", "value": "antinociceptive effect"}, {"measurement": "reversal of tactile allodynia", "setting": "tactile allodynia [6]; [10]", "value": "also observed"}, {"measurement": "tactile allodynia in both hind paws", "setting": "tactile allodynia [6]; 300 μg intrathecal, two weeks after PSNL, two hours following injection", "value": "significantly reversed"}]}, {"smiles": "CN1CC[C@]23c4c5ccc(O)c4O[C@H]2[C@@H](O)C=C[C@H]3[C@H]1C5", "note": "[morphine]", "values": [{"measurement": "ambulatory activity in sham animals", "setting": "[7]; 1 mg/kg", "value": "stimulates ambulatory activity"}, {"measurement": "effect of laparotomy on ambulatory activity", "setting": "[7]; [11]", "value": "blocked; also recorded: reversed"}, {"measurement": "effect of laparotomy on vertical activity", "setting": "[7]; [11]", "value": "not vertical counts; also recorded: not vertical activity"}]}, {"smiles": "CS(=O)(=O)Nc1ccc([N+](=O)[O-])cc1Oc1ccccc1", "note": "[nimesulide]", "values": [{"measurement": "preference in inhibition of COX-1 and COX-2", "setting": "COX-1 and COX-2", "value": "preferentially inhibit COX-2"}]}, {"smiles": "CN1C(C(=O)Nc2ccccn2)=C(O)c2ccccc2S1(=O)=O", "note": "[piroxicam]", "values": [{"measurement": "well established tactile allodynia in either hindpaw", "setting": "tactile allodynia [2]; 4 weeks after PSNL", "value": "failed to attenuate"}]}, {"smiles": "CS(=O)(=O)c1ccc(C2=C(c3ccccc3)C(=O)OC2)cc1", "note": "[rofecoxib]", "values": [{"measurement": "reduction of nociceptive responses", "setting": "nociceptive responses [8]", "value": "no effect"}, {"measurement": "reduction of nociceptive responses", "setting": "nociceptive responses [9]", "value": "no effect"}]}]}
